Measured values as given in patent publication US20250144067A1, “PERSONALIZED STARVATION THERAPY FOR CANCER” (Faeth Therapeutics, Inc., priority 2021, published 2025).
Counter-ions that a name gives are not always drawn.

Tests used:
[1] = tested on: NCI-H292 lung cancer cells; assay: FDA drug screening, complete media vs cholesterol-free media with simvastatin (TABLE 2); format: cell-based, human; conditions: for Cholesterol-free media + simvastatin (0.04 μM) / Complete Media: NCI-H292 cells
[2] = tested on: NCI-H292 lung cancer cells; assay: FDA drug screening, complete media vs cholesterol-free media without statin (TABLE 1); format: cell-based, human
[3] = FDA library drug in cholesterol-free media with simvastatin 0.04 μM
[4] = FDA library drug in complete media
[5] = complete media vs cholesterol-free media + simvastatin (0.04 μM), >0 enhanced anti-cancer activity, about 0 neutral, <0 antagonist
[6] = Complete minus Cholesterol-free, greater than 0 enhanced anti-cancer activity, about 0 neutral, below 0 antagonist
[7] = NCI-H292 cells, FDA drug library screen, cholesterol-free media without statin
[8] = NCI-H292 cells, FDA drug library screen, complete media
[9] = FDA drug library screen, cholesterol-free media with simvastatin 0.04 μM
[10] = complete media minus cholesterol-free media + simvastatin, >0 enhanced anti-cancer activity, about 0 neutral, <0 antagonist
[11] = Complete minus Cholesterol-free, >0 enhanced anti-cancer activity, about 0 neutral, <0 antagonist
[12] = NCI-H292 cells, cholesterol-free media without statin, FDA drug library screen
[13] = NCI-H292 cells, complete media, FDA drug library screen
[14] = complete media minus cholesterol-free media + simvastatin (0.04 μM), >0 enhanced anti-cancer activity, about 0 neutral, <0 antagonist
[15] = NCI-H292 cells, cholesterol-free media without statin
[16] = complete vs cholesterol-free media, greater than 0 enhanced anti-cancer activity, about 0 neutral, below 0 antagonists
[17] = drug in cholesterol-free media with simvastatin 0.04 μM
[18] = complete vs cholesterol-free media, >0 enhanced anti-cancer activity, about 0 neutral, <0 antagonist
[19] = cholesterol-free media with simvastatin 0.04 μM, FDA drug library screen (TABLE 2)
[20] = complete media, FDA drug library screen (TABLE 2)
[21] = complete media minus cholesterol-free media + simvastatin (0.04 μM), […]
[22] = Complete minus Cholesterol-free, […]
[23] = FDA drug library screen, complete media
[24] = cholesterol-free media with simvastatin 0.04 μM, cell growth value in FDA drug screen
[25] = complete media, cell growth value in FDA drug screen
[26] = complete media vs cholesterol-free media + simvastatin (0.04 μM), […]

## C[S+](C)CCC(N)C(=O)O.[Cl-] (racemic) [DL-Methionine methylsulfonium (chloride)]
[1]; [3]
  Cholesterol-free media + simvastatin (0.04 μM): 1.182
[1]; [4]
  Complete Media: 0.8884
[1]; [5]
  Difference: −0.29
[2]; [6]
  Difference: −0.16
[2]; [7]
  Cholesterol-free: 1.102
[2]; [8]
  Complete: 0.9454

## Ifenprodil (tartrate)
[1]; [9]
  Cholesterol-free media + simvastatin (0.04 μM): 0.4918
[1]; [10]
  Difference: 0.57
[2]; [11]
  Difference: 0.02
[2]; [12]
  Cholesterol-free: 0.8921
[2]; [13]
  Complete: 0.9115

## CN(C)CC/C=C1/c2ccccc2Sc2ccc(Cl)cc21 [Chlorprothixene]
[1]; [9]
  Cholesterol-free media + simvastatin (0.04 μM): 2.022
[1]; [14]
  Difference: −0.96
[2]; [15]
  Cholesterol-free: 1.606
[2]; NCI-H292 cells, complete media
  Complete: 1.176
[2]; [16]
  Difference: −0.43

## N=C(N)NC(=O)c1nc(Cl)c(N)nc1N [Amiloride hydrochloride dihydrate]
[1]; [17]
  Cholesterol-free media + simvastatin (0.04 μM): 1.232
[1]; drug in complete media
  Complete Media: 1.07
[1]; [5]
  Difference: −0.16
[2]; [12]
  Cholesterol-free: 0.9043
[2]; [13]
  Complete: 1.06
[2]; [18]
  Difference: 0.16

## CCCN(CCC)C(=O)C(CCC(=O)O)NC(=O)c1ccccc1 (centres unmarked) [Proglumide (sodium)]
[1]; [17]
  Cholesterol-free media + simvastatin (0.04 μM): 1.215
[1]; drug in complete media
  Complete Media: 0.9616
[1]; [5]
  Difference: −0.25
[2]; [11]
  Difference: −0.28
[2]; [15]
  Cholesterol-free: 1.258
[2]; NCI-H292 cells, complete media
  Complete: 0.9781

## COC(=O)C[C@](O)(CCC(C)(C)O)C(=O)O[C@@H]1C(OC)=C[C@]23CCCN2CCc2cc4c(cc2[C@H]13)OCO4 [Harringtonine]
[1]; [19]
  Cholesterol-free media + simvastatin (0.04 μM): −0.01111
[1]; [20]
  Complete Media: −0.002434
[1]; [21]
  Difference: 0.01
[2]; [22]
  Difference: −0.01
[2]; [12]
  Cholesterol-free: 0.0181
[2]; [13]
  Complete: 0.006818

## CCC(C)(C)c1ccc(CC(C)CN2C[C@@H](C)O[C@@H](C)C2)cc1 (some centres unmarked) [Amorolfine (hydrochloride)]
[1]; [9]
  Cholesterol-free media + simvastatin (0.04 μM): 0.4078
[1]; [23]
  Complete Media: 1.021
[1]; [10]
  Difference: 0.61
[2]; [15]
  Cholesterol-free: 1.233
[2]; NCI-H292 cells, complete media
  Complete: 0.8449
[2]; [16]
  Difference: −0.39

## C[C@]12CC[C@@H]3c4ccc(O)cc4CC[C@H]3[C@@H]1CC[C@@H]2O [Estradiol]
[1]; [9]
  Cholesterol-free media + simvastatin (0.04 μM): 1.106
[1]; [23]
  Complete Media: 1.409
[1]; [10]
  Difference: 0.30
[2]; [11]
  Difference: 0.06
[2]; [12]
  Cholesterol-free: 0.707
[2]; [13]
  Complete: 0.7678

## CCN[C@H]1C[C@H](C)S(=O)(=O)c2sc(S(N)(=O)=O)cc21 [Dorzolamide (hydrochloride)]
[1]; [3]
  Cholesterol-free media + simvastatin (0.04 μM): 0.9476
[1]; [4]
  Complete Media: 0.6459
[1]; [5]
  Difference: −0.30
[2]; [6]
  Difference: −0.11
[2]; [7]
  Cholesterol-free: 1.045
[2]; [8]
  Complete: 0.9378

## CCOC(=O)c1c(N)sc2c1CCN(Cc1ccccc1)C2 [Tinoridine hydrochloride]
[1]; [24]
  Cholesterol-free media + simvastatin (0.04 μM): 1.034
[1]; [25]
  Complete Media: 1.059
[1]; [10]
  Difference: 0.03
[2]; [6]
  Difference: −0.11
[2]; [7]
  Cholesterol-free: 1.153
[2]; [8]
  Complete: 1.039

## CCn1nc(C(=O)O)c(=O)c2cc3c(cc21)OCO3 [Cinoxacin]
[1]; [24]
  Cholesterol-free media + simvastatin (0.04 μM): 0.9547
[1]; [25]
  Complete Media: 0.9782
[1]; [10]
  Difference: 0.02
[2]; [11]
  Difference: −0.05
[2]; [12]
  Cholesterol-free: 0.9965
[2]; [13]
  Complete: 0.951

## CN[C@H]1C(=O)N[C@@H]2Cc3ccc(cc3)Oc3cc4cc(c3O[C@@H]3O[C@H](C(=O)O)[C@@H](O)[C@H](O)[C@H]3NC(=O)CCCCCCCCC(C)C)Oc3ccc(cc3Cl)[C@@H](O)[C@@H]3NC(=O)[C@H](NC(=O)[C@@H]4NC(=O)[C@@H](NC2=O)c2cc(cc(O)c2Cl)Oc2cc1ccc2O)c1ccc(O)c(c1)-c1c(O[C@H]2O[C@H](CO)[C@@H](O)[C@H](O)[C@@H]2O)cc(O)cc1[C@@H](C(=O)NCCCN(C)C)NC3=O [Dalbavancin (hydrochloride)]
[1]; [17]
  Cholesterol-free media + simvastatin (0.04 μM): 1.058
[1]; drug in complete media
  Complete Media: 0.8779
[1]; [26]
  Difference: −0.18
[2]; [22]
  Difference: −0.27
[2]; [15]
  Cholesterol-free: 1.639
[2]; NCI-H292 cells, complete media
  Complete: 1.366

## NS(=O)(=O)c1cc2c(cc1Cl)N=C(CSCc1ccccc1)NS2(=O)=O [Benzthiazide]
[1]; [24]
  Cholesterol-free media + simvastatin (0.04 μM): 1.107
[1]; [10]
  Difference: 0.04
[2]; [6]
  Difference: −0.08
[2]; [7]
  Cholesterol-free: 0.9561
[2]; [8]
  Complete: 0.8751

## Rivastigmine (tartrate)
[1]; [19]
  Cholesterol-free media + simvastatin (0.04 μM): 1.478
[1]; [20]
  Complete Media: 1.417
[1]; [21]
  Difference: −0.06
[2]; [15]
  Cholesterol-free: 1.242
[2]; NCI-H292 cells, complete media
  Complete: 0.9137
[2]; complete vs cholesterol-free media, […]
  Difference: −0.33

## Cc1ccc(C(=O)c2ccc(CC(=O)O)n2C)cc1 [Tolmetin]
[1]; [3]
  Cholesterol-free media + simvastatin (0.04 μM): 1.718
[1]; [4]
  Complete Media: 1.392
[1]; [5]
  Difference: −0.33
[2]; [15]
  Cholesterol-free: 0.9799
[2]; NCI-H292 cells, complete media
  Complete: 0.6144
[2]; [16]
  Difference: −0.37

## CC(=O)O[C@]1(C(C)=O)CC[C@H]2[C@@H]3C[C@H](C)C4=CC(=O)C=C[C@]4(C)[C@@]3(F)[C@@H](O)C[C@@]21C [Fluorometholone acetate]
[1]; [9]
  Cholesterol-free media + simvastatin (0.04 μM): 0.6176
[1]; [23]
  Complete Media: 0.9441
[1]; [10]
  Difference: 0.33
[2]; [15]
  Cholesterol-free: 0.9866
[2]; NCI-H292 cells, complete media
  Complete: 0.5758
[2]; [16]
  Difference: −0.41

## CCOc1ccc(NC(C)=O)cc1 [Phenacetin]
[1]; [9]
  Cholesterol-free media + simvastatin (0.04 μM): 1.132
[1]; [23]
  Complete Media: 1.048
[1]; [5]
  Difference: −0.08
[2]; [6]
  Difference: −0.09
[2]; [7]
  Cholesterol-free: 0.9552
[2]; [8]
  Complete: 0.8688

## CS(=O)(=O)c1ccc(C(=O)Nc2ccc(Cl)c(-c3ccccn3)c2)c(Cl)c1 [Vismodegib]
[1]; [19]
  Cholesterol-free media + simvastatin (0.04 μM): 1.089
[1]; [20]
  Complete Media: 1.052
[1]; [14]
  Difference: −0.04
[2]; [11]
  Difference: −0.05
[2]; [12]
  Cholesterol-free: 1.219

## O=C(c1ccc(OCCN2CCCCC2)cc1)c1c(-c2ccc(O)cc2)sc2cc(O)ccc12 [Raloxifene (hydrochloride)]
[1]; [9]
  Cholesterol-free media + simvastatin (0.04 μM): 0.3884
[1]; [23]
  Complete Media: 0.7486
[1]; [10]
  Difference: 0.36
[2]; [12]
  Cholesterol-free: 0.9028
[2]; [13]
  Complete: 1.184
[2]; [18]
  Difference: 0.28

## O=C(Nc1cnn2ccc(N3CCC[C@@H]3c3cc(F)ccc3F)nc12)N1CC[C@H](O)C1 [Larotrectinib]
[1]; [24]
  Cholesterol-free media + simvastatin (0.04 μM): 1.092
[1]; [25]
  Complete Media: 1.143
[1]; [10]
  Difference: 0.05
[2]; [6]
  Difference: −0.08
[2]; [7]
  Cholesterol-free: 1.012
[2]; [8]
  Complete: 0.9305

## Nc1ccc(C(=O)NCC(=O)[O-])cc1.[Na+] [Aminohippurate (sodium)]
[1]; [17]
  Cholesterol-free media + simvastatin (0.04 μM): 1.368
[1]; drug in complete media
  Complete Media: 1.199
[1]; [26]
  Difference: −0.17
[2]; [22]
  Difference: −0.25
[2]; [15]
  Cholesterol-free: 1.249
[2]; NCI-H292 cells, complete media
  Complete: 0.9961

## CCCN[C@H]1CCc2nc(N)sc2C1 [Pramipexole (dihydrochloride)]
[1]; [19]
  Cholesterol-free media + simvastatin (0.04 μM): 0.885
[1]; [20]
  Complete Media: 0.866
[1]; [14]
  Difference: −0.02
[2]; Complete minus Cholesterol-free, greater than 0 enhanced anti-cancer activity, about 0 neutral, below 0 antagonists
  Difference: −0.49
[2]; NCI-H292 cells in cholesterol-free media without statin
  Cholesterol-free: 1.504
[2]; NCI-H292 cells in complete media
  Complete: 1.014
